What is called fraction unbound is the share of the substance not bound to proteins or other matrix. The term half-life denotes how long it takes for the measured level to halve. As usually defined, the MBC is the lowest tested concentration that kills the bacteria rather than only halting them. Higher therefore signals weaker bactericidal potency. The MIC is the lowest concentration found to suppress growth. A low value points to inhibition by little substance.

Here are results for six compounds from US20120035219A1, “Compound for the Treatment of Tuberculosis” (ASTRAZENECA AB, priority 2009, published 2012).

≈ marks a conversion by molar mass, not a printed value.

Data set [1] deals with Mtu (tubercle bacilli) lung infection. Description: In vivo dose-response, aerosol infection model, 4 wk efficacy. As to conditions: BALB/c mice, oral once daily, 6 days a week for 4 weeks.
Another data set is described as follows: in vitro. As to conditions: mouse.
A short description of data set [2]: Pharmacokinetic parameters in dog. Type of data set: in vivo. As to conditions: plasma; Dog (12.5-15 mg/kg). The protocol: (§1) PK analyses of the plasma concentration-time relationships were performed with WinNonLin software (or any other suitable software program). A noncompartmental analysis program was used to calculate the PK parameters, such as the maximum concentration of drug in plasma (Cmax), time to Cmax(tmax), elimination rate constant, elimination half-life, and AUC from time zero to infinity (AUC0-inf)
(§2) The compounds were dosed to animals at various doses (not exceeding 25 mg/kg) and the concentration of the compound at various time points was estimated.

For data set [3], the system named is Mtu in bone marrow derived macrophages from BALB/c mice. Description: Bone marrow derived macrophages (BMDM) intracellular infection model. Type of data set: cell-based, Mycobacterium tuberculosis. As to conditions: for BMDM (log Redn @ 8 μg/mL): 10 days drug exposure, CFU.
The test system of data set [4] is Mtu H37Rv (ATCC 27294). Description: Minimum bactericidal concentration (MBC), plating on 7H10 agar. Type of data set: cell-based. The conditions noted are these: Mycobacterium tuberculosis; concentration giving less than 50 colonies.
Data set [5] can be described thus: Pharmacokinetic parameters in mouse. Type of data set: in vivo, BALB/c mice. Here is the method:
BALB/c mice (8-10 week old) were dosed with the compound in an appropriate vehicle at specified doses as a single dose at a dose volume of 10 mL/Kg. The dose was administered either orally or parentally. Blood samples were collected at various time points ranging from 0.08 h to 50 h post dosing and plasma harvested by acceptable methods like precipitation or extraction. The concentration of the compound in plasma was determined by standard analytical instruments like HPLC and/or LC-MS.
as §1, §2

Data set [6] in a line: Pharmacokinetic parameters in rat. It is filed as in vivo. As to conditions: plasma; Rat (20-25 mg/kg). The protocol: as §1, §2
Data set [7] relates to Mtu H37Rv (ATCC 27294). Nature of the data set: MIC testing, Microplate Alamar Blue Assay. The conditions noted are these: Mycobacterium tuberculosis. It is filed as cell-based. In general terms: Alamar Blue is a resazurin reagent that responds to reducing activity.
For data set [8] the following is noted: cited from earlier work.
For data set [9] the following is noted: cited from earlier work. This is another data set of the same source.
The conditions of data set [10]: compared with Linezolid; cited from earlier work.
The conditions of data set [11]: cited from earlier work. This is another data set of the same source.
The subject of a further data set is M. tuberculosis. The conditions noted are these: given orally or parenterally to experimental animals; cited from earlier work.
The next data set concerns mycobacteria. The conditions noted are these: cited from earlier work.
Data set [12] can be described thus: PPB (fraction free), mouse. As to conditions: plasma.
Data set [13] relates to slow growing mycobacteria. The conditions noted are these: cited from earlier work.
Setting [14] is: BALB/c, plasma, Mouse (10 mg/kg).
Where [15] appears, read: mouse, at the minimum effective dose.

As for `O=C([C@@H](O)CO)N1CC=C(c2c(F)cc(N3C[C@H](COc4ccon4)OC3=O)cc2F)CC1` [AZD2563, (5R)-3-[4-[1-[(2S)-2,3-dihydroxypropanoyl]-3,6-dihydro-2H-pyridin-4-yl]-3,5-difluoro-phenyl]-5-(isoxazol-3-yloxymethyl)oxazolidin-2-one], the “Minimum Effective Dose in a 4 wk efficacy model” value in data set [1] is given as 125 mg/kg. For the same compound, the fraction unbound in “in vitro” was found to be 0.18. Also, the half-life in [2] is 10 h; in data set [5] (setting [14]) it was 1.3 h; in data set [6], 4 to 6 h. Further, the “BMDM (log Redn @ 8 μg/mL)” value in data set [3] was determined as 1.3 log. Moreover, in data set [3] (compared to Linezolid), the “bactericidal activity in the intracellular infection model (BMDM) as compared to Linezolid” value was “greater bactericidal activity”. For the same compound, the MBC against Mtu H37Rv (ATCC 27294) [4] is 2 µg/mL (≈ 4.3 µM). The AUC in data set [5] (BALB/c, mouse, in vivo) was 150000 ng·h/mL; in [5] (BALB/c, mouse, in vivo, 10 mg/kg) it was 20300 ng·h/mL. For the same compound, the fAUC in data set [5] (BALB/c, mouse, in vivo) amounted to 27.07. In data set [5] (setting [15]), this compound showed a fAUC/MIC of 54.14. It took 0.5 µg/mL (≈ 1.07 µM) to inhibit growth in the data set on Mtu H37Rv (ATCC 27294) [7] (MIC).

For `CC(=O)NC[C@H]1CN(c2ccc(-c3ccc(-c4nnnn4C)nc3)c(F)c2)C(=O)O1` [DA-7867], the “tolerability in rat toxicology studies” value in data set [8] was “poorly tolerated”. The in vitro efficacy entry in [9] is on record as “good in vitro”. Moreover, the in vivo efficacy entry in data set [10] is “better in vivo efficacy than Linezolid”.

On to `CC(=O)NC[C@H]1CN(c2ccc(C(C)=O)cc2)C(=O)O1` [DuP-721], for which, in data set [11], the “toxicity in animal models” value is recorded as “lethal toxicity”. Moreover, in the data set with M. tuberculosis, the “activity against M. tuberculosis” value is given as “good activity”.

Regarding `CC(=O)NC[C@H]1CN(c2ccc(N3CCOCC3)c(F)c2)C(=O)O1` [Linezolid, N—[(S)-3-(3-Fluoro-4-morpholin-4-yl-phenyl)-2-oxo-oxazolidin-5-ylmethyl]-acetamide], in [1], the “Minimum Effective Dose in a 4 wk efficacy model” value turned out to be 250 mg/kg. The AUC in data set [2] amounted to 42000 ng·h/mL; in data set [5] (BALB/c, plasma, oral, mouse, at the minimum effective dose, read-out: AUC) it was 279000 ng·h/mL; in data set [5] (BALB/c, plasma, Mouse (10 mg/kg), read-out: AUC), 7300 ng·h/mL; in [6], 41600 ng·h/mL. Further, the figures for the half-life in [2], in [5] (setting [14]) and in [6] were 4 h, 1 h and 1.3 to 3 h, respectively. The “antimycobacterial activities in the murine model” value in the data set with mycobacteria was “promising antimycobacterial activities”. The “BMDM (log Redn @ 8 μg/mL)” value in data set [3] is −0.05 log. The free fraction (fraction unbound) in data set [12] was determined as 0.7. Also, the MBC in the data set with Mtu H37Rv (ATCC 27294) [4] is 4 µg/mL (≈ 11.9 µM). Further, the fAUC/MIC in [5] (setting [15]) is given as 390.24. In data set [5] (mouse, at the minimum effective dose, AUC x fraction free), this compound displayed a fAUC of 195.12. For the same compound, the MIC against Mtu H37Rv (ATCC 27294) [7] is 0.5 µg/mL (≈ 1.48 µM).

With `CC(=O)NC[C@H]1CN(c2ccc(N3CCSCC3)c(F)c2)C(=O)O1` [PNU-100480], the “antimycobacterial activities in the murine model” value with mycobacteria was “promising antimycobacterial activities”.

With `CC(=O)NC[C@H]1CN(c2ccc(N3CCN(Cc4ccc([N+](=O)[O-])o4)CC3)c(F)c2)C(=O)O1` [RBx 7644], the antimycobacterial activity entry in data set [13] is listed as “modest antimycobacterial activity”.
